Data reported in the NIST ThermoML archive (doi:10.1016/j.fluid.2012.01.008).
Numbers after ± are expanded uncertainties.

Conditions: 313.15 K; Liquid; Closed cell (Static) method

SMILES | vapor or sublimation pressure
CCCCCCC [heptane] | 12.34 ± 0.03 kPa
Cc1ccccc1 [toluene] | 7.886 ± 0.022 kPa
